Measured values as given in patent publication US11306095B2 (EAST CHINA UNIVERSITY OF SCIENCE AND TECHNOLOGY, priority 2015, dated 2022).
In brackets after ≈: the same amount, converted by molar mass.

Key:
Wild type EGFR = target: T1, Wild type EGFR (Homo sapiens, UniProt P00533); test: Kinase activity test (FRET), wild type EGFR; type: biochemical; settings: wild type EGFR; read-out: Inhibitory activity of EGFR on kinase (IC50, nM) WT
T1 construct: purchased Invitrogen PV3872
Procedure: (§1) EGFR-TK catalyses transfer of one phosphate group of adenosine triphosphate (ATP) to polypeptide substrate, poly(Glu, Tyr)4:1, which is labeled with two fluorescent groups coumarin and fluorescein.
(§2) 2.5 μL of Test Compounds, 5 μL Kinase/Peptide Substrate Mixture, 2.5 μL ATP Solution were added into a 384-well plate, and the 10 μL of reaction system was shaken for 30 s and incubated at room temperature for 1 h. 5 μL of Development Solution was added and the 15 μL of reaction system was shaken for 30 s, and incubated at room temperature for 1 h. […] The inhibitory rates of the compounds at 7 concentration gradients were determined and the IC50 value for each compound was calculated by Origin 8.0 fitting curve.
(§3) 10 concentration gradients from 5.1×10^−11 mol/L to 1.0×10^−6 mol/L were set for all compounds to be tested.
(§4) Compounds were diluted in DMSO for three times from 5.1×10^−9 M to 1×10^−4 M. 4 μL of the compound was dissolved in 96 μL of water to obtain a 4× compound solution. […] The 10 μL kinase reaction consisted of 2.5 μL compound solution, 5 μL kinase/peptide mix, 2.5 μL ATP solution. […] 5 μL of phosphorylated peptide solution, instead of the kinase/peptide mixture, was used as a 100% phosphorylation control. […] The plates were thoroughly mixed and incubated at room temperature for 1.5 hours. 5 μL of Development Solution was added into each well and then incubated for another 1 hour at room temperature, unphosphorylated peptides were cleaved during this period. Finally, 5 μL Stop Reagent was added to quench the reaction. The plates were measured with EnVision Multilabel Reader (Perkin Elmer). The experimental data were calculated using GraphPad Prism version 4.0. Each experiment was repeated more than 3 times.

[1] = Determination of solubility in water (PBS 20 mM, pH 6.8); type: physicochemical; settings: PBS buffer, aqueous buffer, thermodynamic from solid; pH 6.8, 20 mM PBS; read-out: Solubility (pH 6.8, g/mL)
Procedure: The suspension was filtered through a 0.22 μm PVDF filter, and then diluted to an appropriate concentration with methanol (v=50%) and PBS (v=50%), and the absorbance was measured by a UV spectrophotometer. About 3 mg of compound was accurately weighed, and methanol was added for preparing a stock solution of 1 mg/mL. The above stock solution was taken and prepared into a solution at concentrations of 0.05, 0.04, 0.03, 0.02 and 0.01 mg/mL, respectively, PBS solution (v=50%) was added and the absorbance value was measured. Concentration c (mg/mL) as horizontal ordinate vs absorbance A as longitudinal coordinate was plotted, and a line was fitted for obtaining a standard curve (correlation coefficient greater than 0.998). The solubility of a compound in water was calculated from the standard curve.

EGFR-L858R/T790M = target: T2, EGFR-L858R/T790M (Homo sapiens, UniProt P00533, L858R/T790M); test: Kinase activity test (FRET), EGFR T790M/L858R; type: biochemical; settings: EGFR T790M/L858R; read-out: Inhibitory activity of EGFR on kinase (IC50, nM) T790M/L858R
T2 construct: purchased Invitrogen PV4879
T2 sequence (P00533 25-1210 T790M/L858R): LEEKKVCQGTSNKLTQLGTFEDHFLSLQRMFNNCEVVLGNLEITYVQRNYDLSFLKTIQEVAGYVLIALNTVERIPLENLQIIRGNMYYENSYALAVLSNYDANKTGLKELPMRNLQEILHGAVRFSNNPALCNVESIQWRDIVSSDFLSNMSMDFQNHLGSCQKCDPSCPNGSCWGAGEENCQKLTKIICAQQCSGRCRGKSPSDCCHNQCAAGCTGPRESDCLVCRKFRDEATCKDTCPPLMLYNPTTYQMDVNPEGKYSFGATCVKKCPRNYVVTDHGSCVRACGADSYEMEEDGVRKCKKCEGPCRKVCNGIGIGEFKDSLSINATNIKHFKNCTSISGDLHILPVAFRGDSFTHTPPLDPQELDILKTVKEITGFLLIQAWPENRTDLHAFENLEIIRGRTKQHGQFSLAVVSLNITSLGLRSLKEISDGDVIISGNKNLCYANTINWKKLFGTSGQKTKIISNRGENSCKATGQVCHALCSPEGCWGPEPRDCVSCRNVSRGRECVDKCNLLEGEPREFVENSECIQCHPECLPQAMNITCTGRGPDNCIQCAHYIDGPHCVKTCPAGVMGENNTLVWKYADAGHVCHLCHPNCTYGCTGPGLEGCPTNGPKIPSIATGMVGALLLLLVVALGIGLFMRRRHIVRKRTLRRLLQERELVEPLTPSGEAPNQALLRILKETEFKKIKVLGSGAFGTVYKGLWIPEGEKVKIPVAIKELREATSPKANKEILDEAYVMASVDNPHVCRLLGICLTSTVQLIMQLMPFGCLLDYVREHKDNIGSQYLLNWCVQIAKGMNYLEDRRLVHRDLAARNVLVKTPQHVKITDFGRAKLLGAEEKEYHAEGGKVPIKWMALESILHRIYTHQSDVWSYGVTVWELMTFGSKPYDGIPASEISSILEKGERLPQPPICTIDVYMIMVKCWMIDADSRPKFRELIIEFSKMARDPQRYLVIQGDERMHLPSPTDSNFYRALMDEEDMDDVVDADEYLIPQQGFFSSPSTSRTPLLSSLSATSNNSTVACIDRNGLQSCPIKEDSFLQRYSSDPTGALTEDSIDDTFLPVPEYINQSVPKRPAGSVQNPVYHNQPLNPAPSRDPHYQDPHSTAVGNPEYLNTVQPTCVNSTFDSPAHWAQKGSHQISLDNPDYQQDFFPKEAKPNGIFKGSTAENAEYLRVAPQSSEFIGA
Procedure: as §1, §2, §3, §4

[2] = test system: A431 cells (EGFR wild type); test: Inhibitory activity on cell proliferation, A431; type: cell-based; settings: Homo sapiens, A-431; A431, 72 hours; read-out: Inhibitory activity on proliferation of cells (IC50, μM) A431
Procedure: (§5) Cell proliferation activity was assessed by MTS assay. Cells were exposed to processing conditions for 72 hours and the number of cells used in each experiment for each cell line was adjusted based on absorbance values (absorbance values at 490 nm, 1.3-2.2). Six concentration gradients (0.1 nM-10 μM) were set for the compounds to be tested, wherein at least 6 sets of parallel controls for each concentration were used.
(§6) H1975, A431 cells were cultured in corresponding media, and cells were passaged at least twice after resuscitation and then used for experiments. Cells at Log phase were trypsinized and resuspended in culture medium. H1975 (1000 cells per well), A431 (2000 cells per well) were seeded in 96-well plates in a volume of 100 μL; and 6 sets of parallel controls and 7 columns were set. The plate was placed in a 37° C. 5% CO2 incubator overnight. Compounds were dissolved in DMSO to a concentration of […], and then the concentration was gradually diluted to 10 μM, 1 μM, 0.1 μM, 0.01 μM, 0.001 μM, 0.0001 μM per liter, respectively. 2 μL of the compound solution was added to 998 μL of medium, and the mixture was thoroughly mixed. 100 μL of the mixture was added to a 96-well plate. […] After culturing for 68 hours, 20 μL of MTT (5 mg/mL) was added. After 4 hours, the supernatant was discarded and 150 μL of DMSO was added. After shaking for 10 minutes, the plate was read with Synergy HT (Bio TeK) (OD490). Data were calculated using GraphPad Prism version 4.0 and IC50 values were obtained using a non-linear regression model of dose response curve.

[3] = test system: H1975 cells (EGFR L858R/T790M); test: Inhibitory activity on cell proliferation, H1975; type: cell-based; settings: Homo sapiens, NCI-H1975; H1975, 72 hours; read-out: Inhibitory activity on proliferation of cells (IC50, μM) H1975
Procedure: as §5, §6

T1 sequence (P00533 25-1210): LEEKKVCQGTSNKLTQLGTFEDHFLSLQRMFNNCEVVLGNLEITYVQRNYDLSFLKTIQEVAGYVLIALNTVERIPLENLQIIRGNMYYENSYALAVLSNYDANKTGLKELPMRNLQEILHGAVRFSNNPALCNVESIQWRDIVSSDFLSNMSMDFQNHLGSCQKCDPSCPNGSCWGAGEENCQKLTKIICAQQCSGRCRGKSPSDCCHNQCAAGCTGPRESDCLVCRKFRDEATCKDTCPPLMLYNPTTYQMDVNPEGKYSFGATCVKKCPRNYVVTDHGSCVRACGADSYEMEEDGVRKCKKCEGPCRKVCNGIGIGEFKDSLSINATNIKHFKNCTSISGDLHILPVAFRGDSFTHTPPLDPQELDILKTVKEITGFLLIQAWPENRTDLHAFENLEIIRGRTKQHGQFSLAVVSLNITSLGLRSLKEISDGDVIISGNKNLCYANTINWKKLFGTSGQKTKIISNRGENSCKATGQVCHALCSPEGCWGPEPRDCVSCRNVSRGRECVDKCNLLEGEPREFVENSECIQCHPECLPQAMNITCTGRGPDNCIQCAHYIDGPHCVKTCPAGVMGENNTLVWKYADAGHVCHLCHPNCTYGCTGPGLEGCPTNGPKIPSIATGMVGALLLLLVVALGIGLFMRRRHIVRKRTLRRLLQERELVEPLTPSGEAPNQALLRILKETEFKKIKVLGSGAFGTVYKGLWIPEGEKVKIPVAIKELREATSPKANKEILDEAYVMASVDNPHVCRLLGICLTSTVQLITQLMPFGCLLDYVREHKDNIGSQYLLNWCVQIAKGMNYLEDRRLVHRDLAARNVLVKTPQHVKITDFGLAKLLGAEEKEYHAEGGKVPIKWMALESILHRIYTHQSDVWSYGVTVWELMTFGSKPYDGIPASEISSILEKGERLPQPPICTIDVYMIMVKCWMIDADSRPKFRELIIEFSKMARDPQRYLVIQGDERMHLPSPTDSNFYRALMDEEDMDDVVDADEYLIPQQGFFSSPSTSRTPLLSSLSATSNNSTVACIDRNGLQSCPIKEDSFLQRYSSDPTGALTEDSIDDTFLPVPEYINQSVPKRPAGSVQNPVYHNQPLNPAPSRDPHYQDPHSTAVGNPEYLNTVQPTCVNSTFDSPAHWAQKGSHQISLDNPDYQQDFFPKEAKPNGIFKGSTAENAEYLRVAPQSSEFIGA

IC50 (Wild type EGFR) [nM] | solubility [1] [µg/mL] | IC50 (EGFR-L858R/T790M) [nM] | melting point [°C] | IC50 [2] [µM] | IC50 [3] [µM] | Compound
23.4 | 163 (≈ 300 µM) | 20.8 | 187.3 to 188.1 | 2.81 | 1.04 | C=CC(=O)Nc1cccc(-n2c(=O)cnc3cnc(Nc4ccc(N5CCN(C)CC5)cc4OCOC)nc32)c1 [Compound 9, N-(3-(2-((2-(methoxymethoxy)-4-(4-methyl-1-piperazinyl)phenyl)amino)-7-oxo-8(7H)-pteridinyl)phenyl)acrylamide]
47 | 208 (≈ 405 µM) | 1 | – | 1.66 | 0.06 | C=CC(=O)Nc1cccc(-n2c(=O)cnc3cnc(Nc4ccc(N(C)CCN(C)C)cc4OC)nc32)c1 [Compound 18, N-(3-(2-((4-((2-(dimethylamino)ethyl)(methyl)amino)-2-methoxyphenyl)amino)-7-oxo-8(7H)-pteridinyl)phenyl)acrylamide]
174 | 90.7 (≈ 163 µM) | 14.1 | – | 3.41 | 1.16 | C=CC(=O)Nc1cccc(-n2c(=O)c(C(C)C)nc3cnc(Nc4ccc(N(C)CCN(C)C)cc4OC)nc32)c1 [Compound 19, N-(3-(2-((4-((2-(dimethylamino)ethyl)(methyl)amino)-2-methoxyphenyl)amino)-6-isopropyl-7-oxo-8(71-1)-pteridinyl)phenyl)acrylamide]
15 | 7.4 (≈ 12.5 µM) | 1.3 | – | 6 | 0.04 | C=CC(=O)Nc1cccc(-n2c(=O)c(-c3ccccc3)nc3cnc(Nc4ccc(N(C)CCN(C)C)cc4OC)nc32)c1 [Compound 20, N-(3-(2-((4-((2-(dimethylamino)ethyl)(methyl)amino)-2-methoxyphenyl)amino)-7-oxo-6-phenyl-8(7H)-pteridinyl)phenyl)acrylamide]
2880 | 72.2 (≈ 129 µM) | 251 | – | > 10 | 4.49 | C=CC(=O)N1CCC[C@@H](Cn2c(=O)c(C(C)C)nc3cnc(Nc4ccc(N5CCN(C)CC5)cc4OC)nc32)C1 [Compound 21, (R)-8-((1-acryloyl-3-piperidinyl)methyl)-6-isopropyl-2-((2-methoxy-4-(4-methyl-1-piperazinyl)phenyl)amino)-7(8H)-pteridinone]
> 10000 | 3230 (≈ 6410 µM) | 6900 | – | > 10 | > 10 | C=CC(=O)N1CCC[C@@H](n2c(=O)cnc3cnc(Nc4ccc(N5CCN(C)CC5)cc4OC)nc32)C1 [Compound 22]
1730 | 1690 (≈ 3410 µM) | 939 | – | 3.2 | 1.85 | C=CC(=O)Nc1cc(Nc2ncc3nc(C(C)C)c(=O)n(C)c3n2)c(OC)cc1N(C)CCN(C)C [Compound 23]
700 | 2920 (≈ 5650 µM) | 576 | – | 3.1 | 2.49 | C=CC(=O)N1CC[C@H](n2c(=O)c(C(C)C)nc3cnc(Nc4ccc(N5CCN(C)CC5)c(C)c4)nc32)C1 [Compound 24, (S)-8-(1-acryloyl-3-pyrrolidinyl)-6-isopropyl-2-((3-methyl-4-(4-methyl-1-piperazinyl)phenyl)amino)-7(8H)-pteridinone]
65.2 | 56.7 (≈ 103 µM) | 1.5 | – | 1.75 | 0.016 | C=CC(=O)N1CC[C@H](n2c(=O)c(-c3ccccc3)nc3cnc(Nc4ccc(N5CCN(C)CC5)c(C)c4)nc32)C1 [Compound 25, (S)-8-(1-acryloyl-3-pyrrolidinyl)-2-((3-methyl-4-(4-methyl-1-piperazinyl)phenyl)amino)-6-phenyl-7(8H)-pteridinone]
1300 | 10500 (≈ 19700 µM) | 559 | – | 9.5 | 3.23 | C=CC(=O)N1CC[C@H](n2c(=O)c(C(C)C)nc3cnc(Nc4ccc(N5CCN(C)CC5)cc4OC)nc32)C1 [Compound 26, (S)-8-(1-acryloyl-3-pyrrolidinyl)-6-isopropyl-2-((2-methoxy-4-(4-methyl-1-piperazinyl)phenyl)amino)-7(8H)-pteridinone]
53.7 | 264 (≈ 465 µM) | 3.8 | – | 1.85 | 0.116 | C=CC(=O)N1CC[C@H](n2c(=O)c(-c3ccccc3)nc3cnc(Nc4ccc(N5CCN(C)CC5)cc4OC)nc32)C1 [Compound 27, (S)-8-(1-acryloyl-3-pyrrolidinyl)-2-((2-methoxy-4-(4-methyl-1-piperazinyl)phenyl)amino)-6-phenyl-7(8H)-pteridinone]
> 10000 | 3970 (≈ 6730 µM) | > 10000 | – | > 10 | 8.38 | COc1cc(N2CCN(C)CC2)ccc1Nc1ncc2nc(C(C)C)c(=O)n([C@H]3CCN(C(=O)/C=C/CN(C)C)C3)c2n1 [Compound 28]
177 | 438 (≈ 720 µM) | 791 | – | 1.6 | 3.09 | Cc1cc(Nc2ncc3nc(-c4ccccc4)c(=O)n([C@H]4CCN(C(=O)/C=C/CN(C)C)C4)c3n2)ccc1N1CCN(C)CC1 [Compound 29, (S,E)-8-(1-(4-(dimethylamino)-2-butenoyl)-3-pyrrolidinyl)-2-((3-methyl-4-(4-methyl-1-piperazinyl)phenyl)amino)-6-phenyl-7(8H)-pteridinone]
26 | < 10 | 4.9 | – | 3.23 | 0.074 | C=CC(=O)Nc1cccc(-n2c(=O)c(C(C)C)nc3cnc(Nc4ccc(N5CCN(C)CC5)cc4OC)nc32)c1 [Compound 37, N-(3-(6-isopropyl-2-((2-methoxy-4-(4-methyl-1-piperazinyl)phenyl)amino)-7-oxo-8(7H)pteridinyl)phenyl)acrylamide]
7.7 | < 10 | 0.6 | – | 0.433 | 0.112 | C=CC(=O)Nc1cccc(-n2c(=O)c(C3CCCCC3)nc3cnc(Nc4ccc(N5CCN(C)CC5)cc4OC)nc32)c1 [Compound 43, N-(3-(6-cyclohexyl-2-((2-methoxy-4-(4-methyl-1-piperazinyl)phenyl)amino)-7-oxo-8(7H)pteridinyl)phenyl)acrylamide]
19.2 | < 10 | 14.2 | – | 0.287 | 0.368 | C=CC(=O)N1CCC(n2c(=O)c(-c3ccccc3)nc3cnc(Nc4ccc(N5CCN(C)CC5)c(C)c4)nc32)C1 (stereo not drawn) [Compound 49, 8-(1-acryloyl-3-pyrrolidinyl)-2-((3-methyl-4-(4-methyl-1-piperazinyl)phenyl)amino)-6-phenyl-7(8H)pteridinone]
